These results are taken from US7880007B2, “Bicyclic substituted phenyl piperidine modulators of muscarinic receptors” (Vertex Pharmaceuticals Incorporated, priority 2004, dated 2011).

Common to all, as to format: cell-based
The target of one assay is T1, M2 muscarinic receptor (Homo sapiens, UniProt P08172).
T1 construct: expressed in transfected cells; host or cells: CHO (M2-CHO)
T1 sequence (P08172 1-466): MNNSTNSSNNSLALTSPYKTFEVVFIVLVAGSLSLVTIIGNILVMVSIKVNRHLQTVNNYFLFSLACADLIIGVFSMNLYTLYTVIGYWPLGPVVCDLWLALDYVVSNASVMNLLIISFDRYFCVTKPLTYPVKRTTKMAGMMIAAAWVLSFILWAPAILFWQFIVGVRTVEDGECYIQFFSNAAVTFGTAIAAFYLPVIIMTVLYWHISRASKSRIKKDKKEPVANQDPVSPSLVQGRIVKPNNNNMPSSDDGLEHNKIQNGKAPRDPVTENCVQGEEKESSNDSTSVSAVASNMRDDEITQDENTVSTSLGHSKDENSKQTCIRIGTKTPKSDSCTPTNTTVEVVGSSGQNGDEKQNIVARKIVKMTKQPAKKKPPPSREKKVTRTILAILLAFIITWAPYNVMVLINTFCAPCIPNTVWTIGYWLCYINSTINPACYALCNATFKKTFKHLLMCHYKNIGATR
Description: Functional mobilization of intracellular calcium (FLIPR), M2-CHO cells. The note with it: for Emax: 100% efficacy = maximum response obtained with the Carbachol control; for M2 Activity: M2-CHO cells, calcium mobilization (FLIPR). How it is done: (§1) Functional Mobilization of Intracellular Calcium to Determine Muscarinic Receptor Activity:
(§2) CHO cells expressing muscarinic receptors (M1 to M5) are grown as monolayers in tissue culture flasks at 37° C. in a humidified atmosphere containing 5% CO2 and passaged every 3-5 days. The growth media is Dulbecco's modified eagles medium (DMEM, Gibco Cat #12430-054), containing 25 mM Hepes and supplemented with Fetal Bovine Serum (Hyclone, cat #SH30071.03), 0.1 mM of MEM non-essential amino acids (GIBCO, Cat #11140-050), 1 mM MEM Sodium Pyruvate (GIBCO Cat #11360-070) and 100 units/ml of Penicillin G and 100 μg/ml of Streptomycin (GIBCO Cat #15140-122). The recombinant muscarinic receptor cell lines are grown under antibiotic pressure with media containing 25 μg/ml zeocin and 500 μg/ml G418 (M1-CHO), 4 μg/ml puromycin, 50 μg/ml zeocin and 2.5 μg/ml blasticidin (M2 and M4-CHO) or 50 μg/ml zeocin and 4 μg/ml puromycin (M3 and M5-CHO).
(§3) Cells are harvested at 80-90% confluence using Versene (GIBCO Cat #15040-066), collected by centrifugation and seeded 18-24 hrs prior to running the calcium assay at a density of 5,000-10,000 cells/well in […], clear-bottomed 384-well plates (BD Biocoat, poly-D-lysine, Cat #356663). The day of the experiment, the cells are washed with a plate washer (Bioteck Instruments, ELX 405) using bath 1 buffer (140-mM NaCl, 4.5-mM KCl, 2-mM CaCl2, 1-mM MgCl2, 10-mM Hepes-Na, 10-mM Glucose, pH 7.4, with NaOH) containing 1 mM Probenecid. Next, the calcium dye Fluo-3 (25 μl/well of Fluo-3 AM at 4 μM, Molecular Probes F-1241, in Bath 1 buffer containing 1 mM Probenecid) is added to the 25 μl of Bath 1 remaining in each well after the plate wash and the dye is loaded at 37° C. in the tissue culture incubator for 60-90 min. The fluorescent dye is removed using the plate washer with Bath 1 containing 1 mM Probenecid, leaving 25 μl/well of this solution after the wash. Alternatively, cells can be loaded with the calcium indicator from Molecular Devices (Calcium 3 Assay Reagents, Cat #R7181) adding 5 μl of a 5× solution dye in Bath 1 containing 1 mM Probenecid (10 ml per dye flask cat #R7182 to generate a solution 20×) to 20 μl of the same buffer. After loading for 60 min, the experiment can be run without having to remove the dye.
(§4) Compounds are prepared at a 2× fold concentration in a 96-well plate (round bottom, Costar Corning cat #3656), by reconstituting the pre-spotted compounds in bath 1 containing 1 mM probenecid. The final concentration DMSO is 0.5%, and the amount of DMSO is normalized across the assay plate. To determine an agonist action of the compounds on muscarinic receptors, the reconstituted compounds are added (25 μl compound/well) to the cell assay plate (containing 25 μl/well) using the multi-channel robotic system of the FLIPR 3 Instrument (Molecular Devices, Sunnyvale, Calif.). To determine a functional inhibitory action of the compounds on muscarinic receptors, the reconstituted compounds are added (25 μl compound/well) to the assay plate and pre-incubated for 15 min prior to adding 25 μl of Carbachol at 3× the EC80 for each muscarinic subtype. Alternatively, the compounds can be co-applied simultaneously with the agonist. In both assay modes, the fluorescence is recorded for 60 sec (excitation wavelength is […] and emission wavelength 540 nm) using the FLIPR 3 instrument.
(§5) The potency, efficacy and selectivity of the muscarinic compounds were evaluated by screening the compound activity across the whole family (M1 to M5 cells). Compounds were also screened for activity on other proteins such as other GPCRs and ion channels to determine selectivity on M4 receptors.
(§6) Examples of activities and efficacies of the muscarinic compounds of formulae (I, Ia, Ib, and II) on modulating M1, M2, M3 and M4 receptors are shown below in Table 3. […]
Background: Calcium flux is commonly read through the fluorescence of an indicator in the cells.

In another assay the target is T2, M1 muscarinic receptor (Homo sapiens, UniProt P11229).
T2 construct: expressed in transfected cells; host or cells: CHO (M1-CHO)
T2 sequence (P11229 1-460): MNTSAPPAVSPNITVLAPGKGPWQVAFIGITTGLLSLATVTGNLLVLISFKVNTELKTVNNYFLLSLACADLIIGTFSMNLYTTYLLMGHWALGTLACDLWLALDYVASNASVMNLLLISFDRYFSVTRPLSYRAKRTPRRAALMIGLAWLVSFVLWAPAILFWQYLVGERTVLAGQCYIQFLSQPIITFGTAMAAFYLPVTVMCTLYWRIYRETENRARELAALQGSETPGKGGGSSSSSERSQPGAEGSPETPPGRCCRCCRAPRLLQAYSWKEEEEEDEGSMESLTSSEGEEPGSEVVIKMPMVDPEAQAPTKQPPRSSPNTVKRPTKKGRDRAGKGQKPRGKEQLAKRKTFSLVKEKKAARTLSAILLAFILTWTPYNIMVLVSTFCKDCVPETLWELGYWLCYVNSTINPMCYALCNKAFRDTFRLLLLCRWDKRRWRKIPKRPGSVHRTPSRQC
Description: Functional mobilization of intracellular calcium (FLIPR), M1-CHO cells. Conditions: for Emax: 100% efficacy = maximum response obtained with the Carbachol control; for M1 Activity: M1-CHO cells, calcium mobilization (FLIPR). How it is done:
as §1, §2, §3, §4, §5, §6

Another assay has as its target T3, M4 muscarinic receptor (Homo sapiens, UniProt P08173).
T3 construct: expressed in transfected cells; host or cells: CHO (M4-CHO)
T3 sequence (P08173 1-479): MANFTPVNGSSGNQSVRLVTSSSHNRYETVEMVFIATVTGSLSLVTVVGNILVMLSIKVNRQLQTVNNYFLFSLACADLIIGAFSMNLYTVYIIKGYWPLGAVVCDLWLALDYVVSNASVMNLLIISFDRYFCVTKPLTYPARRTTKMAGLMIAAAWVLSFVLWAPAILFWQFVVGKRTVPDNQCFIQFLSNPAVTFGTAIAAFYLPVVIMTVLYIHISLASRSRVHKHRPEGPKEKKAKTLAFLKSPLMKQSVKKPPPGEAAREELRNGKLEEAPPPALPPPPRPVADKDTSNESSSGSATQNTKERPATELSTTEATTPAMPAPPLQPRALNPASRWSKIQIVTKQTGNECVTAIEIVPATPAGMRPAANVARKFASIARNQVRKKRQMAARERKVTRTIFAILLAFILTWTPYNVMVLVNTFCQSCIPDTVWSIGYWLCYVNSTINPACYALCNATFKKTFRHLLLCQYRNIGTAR
Put plainly: Functional mobilization of intracellular calcium (FLIPR), M4-CHO cells. Conditions: for Emax: 100% efficacy = maximum response obtained with the Carbachol control; for M4 Activity: M4-CHO cells, calcium mobilization (FLIPR). How it is done:
as §1, §2, §3, §4, §5, §6

Consider `COc1ccccc1C1(C#N)CCN(C[C@H]2C[C@H]3CC[C@H]2C3)CC1` [Compound 172], for which, at M2 muscarinic receptor, the Emax (as a rule, the size of the effect at its maximum, as opposed to the concentration needed) was in the range of 25 to 100% and the “M2 Activity” value was “+++ (activity was measured to be less than 1.0 μM)”. In addition, at M1 muscarinic receptor, the Emax was in the range of 25 to 100% and the “M1 Activity” value was “+++ (activity was measured to be less than 1.0 μM)”. Besides, on M4 muscarinic receptor, the Emax lay in the range of 25 to 100% and the “M4 Activity” value is “+++ (activity was measured to be less than 1.0 μM)”.

Take `COc1ccc(Cl)cc1C1(OC)CCN(C2CCOCC2)CC1` [Compound 201]: at M2 muscarinic receptor, the Emax was less than 25% and the “M2 Activity” value is listed as “+ (activity was measured to be greater than 5.0 μM)”. Moreover, on M1 muscarinic receptor, the Emax was less than 25% and the “M1 Activity” value was “+ (activity was measured to be greater than 5.0 μM)”. Besides, at M4 muscarinic receptor, the Emax was less than 25% and the “M4 Activity” value is given as “+ (activity was measured to be greater than 5.0 μM)”.

`COc1ccc(Cl)cc1C1(OC)CCN(C2CCCCC2)CC1` [Compound 203]: on M2 muscarinic receptor, the Emax was less than 25% and the “M2 Activity” value was “+ (activity was measured to be greater than 5.0 μM)”. On M1 muscarinic receptor, the Emax lay within 25 to 100% and the “M1 Activity” value is recorded as “+ (activity was measured to be greater than 5.0 μM)”. For the same molecule, on M4 muscarinic receptor, the Emax is 25 to 100% and the “M4 Activity” value is on record as “++ (activity was measured to be from 1.0 μM to 5.0 μM)”.

Take `COc1ccccc1C1CCN(CC2CC3CCC2O3)CC1` (stereo not drawn) [Compound 218]: on M2 muscarinic receptor, the Emax is less than 25% and the “M2 Activity” value was “+ (activity was measured to be greater than 5.0 μM)”. In addition, on M1 muscarinic receptor, the Emax was less than 25% and the “M1 Activity” value is listed as “+ (activity was measured to be greater than 5.0 μM)”. On M4 muscarinic receptor, the Emax fell in the range of 25 to 100% and the “M4 Activity” value was “++ (activity was measured to be from 1.0 μM to 5.0 μM)”.

As for `COc1ccc(Cl)cc1C1(O)CCN(C2CCC3CCC2C3)CC1` (stereo not drawn) [Compound 228], on M2 muscarinic receptor, the Emax was less than 25% and the “M2 Activity” value was “+ (activity was measured to be greater than 5.0 μM)”. Further, at M1 muscarinic receptor, the Emax is less than 25% and the “M1 Activity” value is reported as “+ (activity was measured to be greater than 5.0 μM)”. Moreover, on M4 muscarinic receptor, the Emax was 25 to 100% and the “M4 Activity” value is given as “++ (activity was measured to be from 1.0 μM to 5.0 μM)”.

On to `COc1ccccc1C1(C#N)CCN(C2CCC3CCC2C3)CC1` (stereo not drawn) [Compound 240], for which, at M2 muscarinic receptor, the Emax was 25 to 100% and the “M2 Activity” value is “++ (activity was measured to be from 1.0 μM to 5.0 μM)”. Also, on M1 muscarinic receptor, the Emax was in the range of 25 to 100% and the “M1 Activity” value is “++ (activity was measured to be from 1.0 μM to 5.0 μM)”. Further, on M4 muscarinic receptor, the Emax was in the range of 25 to 100% and the “M4 Activity” value is listed as “+++ (activity was measured to be less than 1.0 μM)”.

As to `COc1ccc(C2CCN(C3C[C@H]4CC[C@H](C3)C4)CC2)c(C)c1` (stereo partly drawn) [Compound 244], at M2 muscarinic receptor, the Emax is less than 25% and the “M2 Activity” value was “+ (activity was measured to be greater than 5.0 μM)”. On M1 muscarinic receptor, the Emax is less than 25% and the “M1 Activity” value is recorded as “+ (activity was measured to be greater than 5.0 μM)”. Besides, at M4 muscarinic receptor, the Emax is less than 25% and the “M4 Activity” value is given as “+ (activity was measured to be greater than 5.0 μM)”.

Take `CCOC(=O)N1CCC(N2CCC(C#N)(c3ccccc3OC)CC2)CC1` [Compound 245, ethyl 4-cyano-4-(2-methoxyphenyl)-1,4′-bipiperidine-1′-carboxylate]: at M2 muscarinic receptor, the Emax was less than 25% and the “M2 Activity” value was “+ (activity was measured to be greater than 5.0 μM)”. For the same molecule, at M1 muscarinic receptor, the Emax fell in the range of 25 to 100% and the “M1 Activity” value was “+++ (activity was measured to be less than 1.0 μM)”. Moreover, at M4 muscarinic receptor, the Emax fell in the range of 25 to 100% and the “M4 Activity” value is “+++ (activity was measured to be less than 1.0 μM)”.

For the molecule `COc1ccccc1C1(C#N)CCN(C2CCCCCC2)CC1` [Compound 279], on M2 muscarinic receptor, the Emax is less than 25% and the “M2 Activity” value is given as “+ (activity was measured to be greater than 5.0 μM)”. Besides, at M1 muscarinic receptor, the Emax is less than 25% and the “M1 Activity” value was “++ (activity was measured to be from 1.0 μM to 5.0 μM)”. Moreover, on M4 muscarinic receptor, the Emax fell in the range of 25 to 100% and the “M4 Activity” value was “++ (activity was measured to be from 1.0 μM to 5.0 μM)”.

With `COc1ccc(Cl)cc1C1(OC)CCN(C[C@@H]2C[C@H]3C=C[C@H]2C3)CC1` [Compound 286], at M2 muscarinic receptor, the Emax is less than 25% and the “M2 Activity” value is on record as “+ (activity was measured to be greater than 5.0 μM)”. In addition, at M1 muscarinic receptor, the Emax fell in the range of 25 to 100% and the “M1 Activity” value was “+ (activity was measured to be greater than 5.0 μM)”. Further, at M4 muscarinic receptor, the Emax was 25 to 100% and the “M4 Activity” value is “+++ (activity was measured to be less than 1.0 μM)”.
